Values of other authors, collected in patent US20230240962A1, “METHOD FOR DYEING KERATINOUS MATERIAL, COMPRISING THE USE OF AN ORGANOSILICON COMPOUND, AN ALKYL(POLY)GLYCOSIDE, A DYEING COMPOUND AND A POST-TREATMENT AGENT” (Henkel AG & Co. KGaA, priority 2020, published 2023).

Conditions: 25° C.

| solubility in water (in words) | Compound | solubility in water |
| --- | --- | --- |
|  | CCN(Cc1cccc(S(=O)(=O)[O-])c1)c1ccc(C(=C2C=CC(=[N+](CC)Cc3cccc(S(=O)(=O)[O-])c3)C=C2)c2ccccc2S(=O)(=O)[O-])cc1.[Na+].[Na+] [Acid Blue 9] | more than 20 wt. % |
|  | O=S(=O)([O-])c1ccc(N=Nc2c(O)ccc3ccccc23)cc1.[Na+] [Acid Orange 7, sodium salt of 4-[(2-hydroxy-1-naphthyl)azo]benzene sulphonate] | more than 7 g/L |
|  | Nc1cc(S(=O)(=O)[O-])cc2cc(S(=O)(=O)[O-])c(N=Nc3ccccc3)c(O)c12.[Na+].[Na+] [Acid Red 33, disodium salt of 5-amino-4-hydroxy-3-(phenylazo)-naphthalene-2,7-disulphonate] | 2.5 g/L |
|  | O=C([O-])c1c(Cl)c(Cl)c(Cl)c(Cl)c1-c1c2c(Br)cc(=O)c(Br)c-2oc2c(Br)c(O)cc(Br)c12.O=C([O-])c1c(Cl)c(Cl)c(Cl)c(Cl)c1-c1c2c(Br)cc(=O)c(Br)c-2oc2c(Br)c(O)cc(Br)c12.[Na+].[Na+] [Acid Red 92, disodium salt of 3,4,5,6-tetrachloro-2-(1,4,5,8-tetrabromo-6-hydroxy-3-oxoxanthen-9-yl)benzoic acid] | greater than 10 g/L |
| highly soluble | O=C([O-])C1=NN(c2ccc(S(=O)(=O)[O-])cc2)C(=O)C1N=Nc1ccc(S(=O)(=O)[O-])cc1.[Na+].[Na+].[Na+] (centres unmarked) [Acid Yellow 23, trisodium salt of 4,5-dihydro-5-oxo-1-(4-sulfophenyl)-4-((4-sulfophenyl)azo)-1H-pyrazole-3-carboxylic acid] |  |
